This passage reports IC50 results from patent US12275712B2, “Triterpene derivatives as HIV inhibitors” (HETERO LABS LIMITED, priority 2019, dated 2025).

Experiment [1] relates to HIV-1 strain 92HT599. As to the kind of experiment: Antiviral activity against HIV-1 strain 92HT599 in MT2 cells (p24 estimation). It counts as cell-based. To be noted: Human immunodeficiency virus 1; HIV-1 strain 92HT599, MT2 cells, ~96 hours, p24; read-out: IC50. The procedure:
MT2 cells were infected with HIV-1 strain 92HT599 (10 TCID 50/30000 cells). The infected cells were plated at the concentration of ˜30,000 cells per well in 96 well plate. Test compound was added to the micro plate in defined format with the final concentration of DMSO (vehicle) is not more than 1%. Incubation was carried out in CO2 incubator for ˜96 hours for viral infection. At the end of incubation period an aliquot from each well was taken for p24 estimation. The quantitation of p24 is an index for antiviral activity of the compound. Percent inhibition was calculated with reference to control values (vehicle controls). p24 estimation was carried out using Advance biosciences kit as per the procedure detailed by supplier.
The IC50 (nM) values are set forth in below Table-1.

Experiment [2] has as its system pNL4-3 WT. As to the kind of experiment: Antiviral activity against pNL4-3 WT strain in MT4 cells (p24 estimation). It counts as cell-based, HIV-1. Particulars: Human immunodeficiency virus 1, MT4, 96 h, read-out: pNL4-3 WT IC50. How it is done: (§1) MT4 cells were Transfected with HIV-1 Plasmid (pNL4-3-WT & V7A) (Cells were incubating with required number of TCID50 of HIV-1 for 1.5 h at 37° C.). After infection, the infected cells were plated at the concentration of 3×10^4 cells per well in 96 well plate. Test compound was added to the test plate in defined format with the final concentration of DMSO is not more than 1%. Incubation was carried out in CO2 incubator for 4 days for viral infection. At the end of incubation period an aliquot from each well was taken for p24 estimation. p24 estimation was carried out using Advance biosciences kit as per the procedure detailed by supplier.

Experiment [3] relates to pNL4-3 V7A. Description: Antiviral activity against pNL4-3 V7A strain in MT4 cells (p24 estimation). To be noted: Human immunodeficiency virus 1, MT4, 96 h, read-out: pNL4-3 V7A IC50. Format: cell-based, HIV-1. The procedure: as §1

Some results are limits rather than exact numbers.

Turning to `COCCOCC(=O)O[C@H](C)[C@@H](CN[C@]12CC[C@@H](C3(C)CC3)[C@@H]1[C@H]1CC[C@@H]3[C@@]4(C)CC[C@H](OC(=O)[C@H]5C[C@@H](C(=O)O)C5(C)C)C(C)(C)[C@@H]4CC[C@@]3(C)[C@]1(C)CC2)N1CCS(=O)(=O)CC1` [Example 17, (1R,3S)-3-((((1R,3aS,5aR,5bR,7aR,9S,11aR,11bR,13aR,13bR)-3a-(((2R,3R)-2-(1,1-dioxidothiomorpholino)-3-(2-(2-methoxyethoxy)acetoxy)butyl)amino)-5a,5b,8,8,11a-pentamethyl-1-(1-methylcyclopropyl)icosahydro-1H-cyclopentachrysen-9-yl)oxy)carbonyl)-2,2-dimethylcyclobutane-1-carboxylic acid], the IC50 (commonly the concentration that gives 50% inhibition) is under 0.01 µM in experiment [1], under 0.01 µM in experiment [2] and 0.001 to 0.05 µM in experiment [3].
With `CC(C)[C@H](CN[C@]12CC[C@@H](C3(C)CC3)[C@@H]1[C@H]1CC[C@@H]3[C@@]4(C)CC[C@H](OC(=O)[C@H]5C[C@@H](C(=O)O)C5(C)C)C(C)(C)[C@@H]4CC[C@@]3(C)[C@]1(C)CC2)N1CCS(=O)(=O)CC1` [Example 3, (1R,3S)-3-((((1R,3aS,5aR,5bR,7aR,9S,11aR,11bR,13aR,13bR)-3a-(((R)-2-(1,1-dioxidothiomorpholino)-3-methylbutyl)amino)-5a,5b,8,8,11a-pentamethyl-1-(1-methylcyclopropyl)icosahydro-1H-cyclopenta[a]chrysen-9-yl)oxy)carbonyl)-2,2-dimethyl cyclobutane-1-carboxylic acid], the IC50 in experiment [1] is over 0.02 µM; in experiment [2], over 0.05 µM; in experiment [3], over 0.1 µM.
Turning to `CC1([C@@H]2CC[C@]3(NC[C@@H](CO)N4CCS(=O)(=O)CC4)CC[C@]4(C)[C@H](CC[C@@H]5[C@@]6(C)CC[C@H](OC(=O)[C@H]7C[C@@H](C(=O)O)C7(C)C)C(C)(C)[C@@H]6CC[C@]54C)[C@@H]23)CC1` [Example 8, (1R,3S)-3-((((1R,3aS,5aR,5bR,7aR,9S,11aR,11bR,13aR,13bR)-3a-(((S)-2-(1,1-dioxidothiomorpholino)-3-hydroxypropyl)amino)-5a,5b,8,8,11a-pentamethyl-1-(1-methylcyclopropyl)icosahydro-1H-cyclopenta[a]chrysen-9-yl)oxy)carbonyl)-2,2-dimethylcyclobutane-1-carboxylic acid], the IC50 in experiment [1] was under 0.01 µM; in experiment [2] it was under 0.01 µM; in experiment [3] it was 0.001 to 0.05 µM.
Consider `C=C(C)[C@@H]1CC[C@]2(NC[C@H]([C@@H](C)O)N3CCS(=O)(=O)CC3)CC[C@]3(C)[C@H](CC[C@@H]4[C@@]5(C)CC[C@H](OC(=O)CC(C)(C)C(=O)O)C(C)(C)[C@@H]5CC[C@]43C)[C@@H]12` [Example 20, 4-(((1R,3aS,5aR,5bR,7aR,9S,11aR,11bR,13aR,13bR)-3a-(((2R,3R)-2-(1,1-dioxidothiomorpholino)-3-hydroxybutyl)amino)-5a,5b,8,8,11a-pentamethyl-1-(prop-1-en-2-yl)icosahydro-1H-cyclopentachrysen-9-yl)oxy)-2,2-dimethyl-4-oxobutanoic acid], for which the IC50 in experiment [1] is under 0.01 µM; in experiment [2] it was under 0.01 µM; in experiment [3], 0.001 to 0.05 µM.
With `CC1([C@@H]2CC[C@]3(NCC(C)(C)N4CCS(=O)(=O)CC4)CC[C@]4(C)[C@H](CC[C@@H]5[C@@]6(C)CC[C@H](OC(=O)[C@H]7C[C@@H](C(=O)O)C7(C)C)C(C)(C)[C@@H]6CC[C@]54C)[C@@H]23)CC1` [Example 1, (1R,3S)-3-((((1R,3aS,5aR,5bR,7aR,9S,11aR,11bR,13aR,13bR)-3a-((2-(1,1-dioxidothiomorpholino)-2-methylpropyl)amino)-5a,5b,8,8,11a-pentamethyl-1-(1-methylcyclopropyl)icosahydro-1H-cyclopentachrysen-9-yl)oxy)carbonyl)-2,2-dimethyl cyclobutane-1-carboxylic acid], the values for the IC50 in experiment [1], in experiment [2] and in experiment [3] were over 0.02 µM, over 0.05 µM and over 0.1 µM, respectively.
In the case of `CC(C)S(=O)(=O)N1CCN([C@H](CN[C@]23CC[C@@H](C4(C)CC4)[C@@H]2[C@H]2CC[C@@H]4[C@@]5(C)CC[C@H](OC(=O)[C@H]6C[C@@H](C(=O)O)C6(C)C)C(C)(C)[C@@H]5CC[C@@]4(C)[C@]2(C)CC3)[C@@H](C)O)CC1` [Example 14, (1R,3S)-3-((((1R,3aS,5aR,5bR,7aR,9S,11aR,11bR,13aR,13bR)-3a-(((2R,3R)-3-hydroxy-2-(4-(isopropylsulfonyl)piperazin-1-yl)butyl)amino)-5a,5b,8,8,11a-pentamethyl-1-(1-methylcyclopropyl)icosahydro-1H-cyclopenta[a]chrysen-9-yl)oxy)carbonyl)-2,2-dimethylcyclobutane-1-carboxylic acid], the IC50 is under 0.01 µM in experiment [1], under 0.01 µM in experiment [2] and 0.001 to 0.05 µM in experiment [3].
Consider `C[C@H](F)[C@@H](CN[C@]12CC[C@@H](C3(C)CC3)[C@@H]1[C@H]1CC[C@@H]3[C@@]4(C)CC[C@H](OC(=O)[C@H]5C[C@@H](C(=O)O)C5(C)C)C(C)(C)[C@@H]4CC[C@@]3(C)[C@]1(C)CC2)N1CCS(=O)(=O)CC1` [Example 12, (1R,3S)-3-((((1R,3aS,5aR,5bR,7aR,9S,11aR,11bR,13aR,13bR)-3a-(((2R,3 S)-2-(1,1-dioxidothiomorpholino)-3-fluorobutyl)amino)-5a,5b,8,8,11a-pentamethyl-1-(1-methylcyclopropyl)icosahydro-1H-cyclopentachrysen-9-yl)oxy)carbonyl)-2,2-di methylcyclobutane-1-carboxylic acid], for which the IC50 in experiment [1] was over 0.02 µM; in experiment [2] it was 0.01 to 0.05 µM; in experiment [3], over 0.1 µM.
For `C[C@@H](CN[C@]12CC[C@@H](C3(C)CC3)[C@@H]1[C@H]1CC[C@@H]3[C@@]4(C)CC[C@H](OC(=O)[C@H]5C[C@@H](C(=O)O)C5(C)C)C(C)(C)[C@@H]4CC[C@@]3(C)[C@]1(C)CC2)N1CCS(=O)(=O)CC1` [Example 2, (1R,3S)-3-((((1R,3aS,5aR,5bR,7aR,9S,11aR,11bR,13aR,13bR)-3a-(((S)-2-(1,1-dioxidothiomorpholino)propyl)amino)-5a,5b,8,8,11a-pentamethyl-1-(1-methylcyclopropyl)icosahydro-1H-cyclopentachrysen-9-yl)oxy)carbonyl)-2,2-dimethyl cyclobutane-1-carboxylic acid], the IC50 is under 0.01 µM in experiment [1], under 0.01 µM in experiment [2] and 0.001 to 0.05 µM in experiment [3].
In the case of `CC1([C@@H]2CC[C@]3(NC[C@H](CO)N4CCS(=O)(=O)CC4)CC[C@]4(C)[C@H](CC[C@@H]5[C@@]6(C)CC[C@H](OC(=O)[C@H]7C[C@@H](C(=O)O)C7(C)C)C(C)(C)[C@@H]6CC[C@]54C)[C@@H]23)CC1` [Example 5, (1R,3S)-3-((((1R,3aS,5aR,5bR,7aR,9S,11aR,11bR,13aR,13bR)-3a-(((R)-2-(1,1-dioxidothiomorpholino)-3-hydroxypropyl)amino)-5a,5b,8,8,11a-pentamethyl-1-(1-methylcyclopropyl)icosahydro-1H-cyclopenta[a]chrysen-9-yl)oxy)carbonyl)-2,2-dimethylcyclobutane-1-carboxylic acid], the IC50 was under 0.01 µM in experiment [1], under 0.01 µM in experiment [2] and 0.001 to 0.05 µM in experiment [3].
